# Assay results taken from ChEMBL document CHEMBL2177100, “Structural optimization and structure-activity relationships of N2-(4-(4-Methylpiperazin-1-yl)phenyl)-N8-phenyl-9H-purine-2,8-diamine derivatives, a new class of reversible kinase inhibitors targeting both EGFR-activating and resistance mutations” (J Med Chem, 2012).
# Active and inactive are the calls of the source. No cut-off for these calls is given here.
# Assays:
# [1] = Binding affinity to […] EGFR L747-S752del, Sins mutant by KINOMEscan kinase binding assay
# [2] = Binding affinity to […] EGFR 747-E749del, A750P mutant by KINOMEscan kinase binding assay
# [3] = Binding affinity to […] EGFR […] mutant by KINOMEscan kinase binding assay
# HepG2 = assay: Cytotoxicity against human HepG2 cells incubated for 72 hrs by MTT assay; format: functional, cell-based; conditions: HepG2, 72 h
# NCI-H1975 [4] = assay: Cytotoxicity against human NCI-H1975 cells incubated for 72 hrs by MTT assay; format: functional, cell-based; conditions: NCI-H1975, 72 h
# [5] = Cytotoxicity against human HCC827 cells incubated for 72 hrs by MTT assay; format: functional, cell-based; conditions: HCC827, 72 h
# [6] = molecular target: Rho-associated protein kinase 2 (Homo sapiens, UniProt O75116); assay: Inhibition of human recombinant ROCK2 by radiometric kinase assay
# [7] = molecular target: Receptor tyrosine-protein kinase erbB-2 (Homo sapiens, UniProt P04626); assay: Inhibition of human recombinant ERBB2 by radiometric kinase assay
# NCI-H1975 [8] = assay: Antitumor activity against human NCI-H1975 cells xenografted in BALB/c mouse assessed as inhibition of tumor growth at 25 mg/kg, po qd; format: functional; conditions: read-out: TGI
# HCC827 [9] = assay: Antitumor activity against human HCC827 cells xenografted in BALB/c mouse assessed as complete tumor regression at 5 mg/kg, po qd measured within 15 days compound treatment; format: functional, organism-based; design: dose 5 mg/kg
# [10] = Cmax in Sprague-Dawley rat at 20 mg/kg, po; format: ADME, organism-based; design: dose 20 mg/kg, route oral; conditions: in vivo
# [11] = Clearance in Sprague-Dawley rat at 20 mg/kg, po; format: ADME, organism-based; design: dose 20 mg/kg, route oral; conditions: in vivo
# Rattus norvegicus = assay: Volume of distribution at steady state in Sprague-Dawley rat at 20 mg/kg, po; format: ADME, organism-based; design: dose 20 mg/kg, route oral; conditions: in vivo
# [12] = Tmax in Sprague-Dawley rat at 20 mg/kg, po; format: ADME, organism-based; design: dose 20 mg/kg, route oral; conditions: in vivo
# [13] = Half life in Sprague-Dawley rat at 20 mg/kg, po; format: ADME, organism-based; design: dose 20 mg/kg, route oral; conditions: in vivo
# [14] = AUC (0 to 24 hrs) in Sprague-Dawley rat at 20 mg/kg, po; format: ADME, organism-based; design: time < 24 hr, dose 20 mg/kg, route oral; conditions: plasma
# Mus musculus [15] = assay: Inhibition of EGFR phosphorylation in human HCC827 cells xenografted in BALB/c mouse at 1 mg/kg/day, po for 3 days by immunohistochemistry; format: functional, organism-based
# Mus musculus [16] = assay: Toxicity in human NCI-H1975 cells xenografted BALB/c mouse assessed as body weight loss at 50 mg/kg, po qd; format: organism-based; design: dose 50 mg/kg, route oral; conditions: in vivo
# NCI-H1975 [17] = assay: Antitumor activity against human NCI-H1975 cells xenografted in BALB/c mouse assessed as inhibition of tumor growth administered orally once daily; format: functional, cell-based
# NCI-H1975 [18] = assay: Antitumor activity against human NCI-H1975 cells xenografted in BALB/c mouse assessed as inhibition of tumor growth at 50 mg/kg, po qd; format: functional; conditions: read-out: TGI
# HCC827 [19] = assay: Antitumor activity against human HCC827 cells xenografted in BALB/c mouse assessed as reduction tumor volume at 5 mg/kg, po qd; format: functional, organism-based; design: dose 5 mg/kg
# HCC827 [20] = assay: Antitumor activity against human HCC827 cells xenografted in BALB/c mouse assessed as reduction tumor volume at 1 mg/kg, po qd; format: functional, organism-based; design: dose 1 mg/kg
# FaDu = assay: Cytotoxicity against human FADU cells incubated for 72 hrs by MTT assay; format: functional, cell-based
# [21] = molecular target: Mitogen-activated protein kinase 14 (Homo sapiens, UniProt Q16539); assay: Inhibition of human recombinant p38alpha by radiometric kinase assay
# [22] = molecular target: Non-receptor tyrosine-protein kinase TYK2 (Homo sapiens, UniProt P29597); assay: Inhibition of human recombinant TYK2 by radiometric kinase assay
# [23] = molecular target: Serine/threonine-protein kinase N2 (Homo sapiens, UniProt Q16513); assay: Inhibition of human recombinant PKN2 by radiometric kinase assay
# [24] = molecular target: Serine/threonine-protein kinase PLK1 (Homo sapiens, UniProt P53350); assay: Inhibition of human recombinant PLK1 by radiometric kinase assay
# [25] = molecular target: Serine/threonine-protein kinase N1 (Homo sapiens, UniProt Q16512); assay: Inhibition of human recombinant PKN1 by radiometric kinase assay
# [26] = molecular target: Protein kinase C theta type (Homo sapiens, UniProt Q04759); assay: Inhibition of human recombinant PKCtheta by radiometric kinase assay
# [27] = molecular target: Protein kinase C alpha type (Homo sapiens, UniProt P17252); assay: Inhibition of human recombinant PKCalpha by radiometric kinase assay
# [28] = Inhibition of human recombinant PKA by radiometric kinase assay
# [29] = molecular target: Serine/threonine-protein kinase pim-2 (Homo sapiens, UniProt Q9P1W9); assay: Inhibition of human recombinant PIM2 by radiometric kinase assay
# [30] = molecular target: MAP kinase-interacting serine/threonine-protein kinase 2 (Homo sapiens, UniProt Q9HBH9); assay: Inhibition of human recombinant MNK2 by radiometric kinase assay
# [31] = molecular target: MAP kinase-activated protein kinase 2 (Homo sapiens, UniProt P49137); assay: Inhibition of human recombinant MK2 by radiometric kinase assay
# [32] = molecular target: Mitogen-activated protein kinase 9 (Homo sapiens, UniProt P45984); assay: Inhibition of human recombinant JNK2 by radiometric kinase assay
# [33] = molecular target: Tyrosine-protein kinase JAK3 (Homo sapiens, UniProt P52333); assay: Inhibition of human recombinant JAK3 by radiometric kinase assay
# [34] = molecular target: Tyrosine-protein kinase JAK2 (Homo sapiens, UniProt O60674); assay: Inhibition of human recombinant JAK2 by radiometric kinase assay
# [35] = molecular target: Interleukin-1 receptor-associated kinase 4 (Homo sapiens, UniProt Q9NWZ3); assay: Inhibition of human recombinant IRAK4 by radiometric kinase assay
# [36] = molecular target: Mitogen-activated protein kinase 1 (Homo sapiens, UniProt P28482); assay: Inhibition of human recombinant ERK2 by radiometric kinase assay
# [37] = molecular target: Glycogen synthase kinase-3 beta (Homo sapiens, UniProt P49841); assay: Inhibition of human recombinant GSK3beta by radiometric kinase assay
# [38] = Inhibition of human recombinant CaMK2 by radiometric kinase assay
# [39] = Inhibition of human recombinant CK1 by radiometric kinase assay
# [40] = molecular target: Proto-oncogene tyrosine-protein kinase Src (Homo sapiens, UniProt P12931); assay: Inhibition of human recombinant SRC by radiometric kinase assay
# [41] = molecular target: Mast/stem cell growth factor receptor Kit (Homo sapiens, UniProt P10721); assay: Inhibition of human recombinant KIT by radiometric kinase assay
# Insulin receptor = Insulin receptor (Homo sapiens, UniProt P06213); assay: Inhibition of human recombinant INSR by radiometric kinase assay
# [42] = molecular target: Insulin-like growth factor 1 receptor (Homo sapiens, UniProt P08069); assay: Inhibition of human recombinant IGF1R by radiometric kinase assay
# [43] = molecular target: Receptor tyrosine-protein kinase erbB-4 (Homo sapiens, UniProt Q15303); assay: Inhibition of human recombinant ERBB4 by radiometric kinase assay
# [44] = molecular target: ALK tyrosine kinase receptor (Homo sapiens, UniProt Q9UM73); assay: Inhibition of human recombinant ALK by radiometric kinase assay
# [45] = molecular target: Cyclin-dependent kinase 2 (Homo sapiens, UniProt P24941); assay: Inhibition of human recombinant CDK2 by radiometric kinase assay
# Mitogen-activated protein kinase 9, sequence (P45984 whole entry): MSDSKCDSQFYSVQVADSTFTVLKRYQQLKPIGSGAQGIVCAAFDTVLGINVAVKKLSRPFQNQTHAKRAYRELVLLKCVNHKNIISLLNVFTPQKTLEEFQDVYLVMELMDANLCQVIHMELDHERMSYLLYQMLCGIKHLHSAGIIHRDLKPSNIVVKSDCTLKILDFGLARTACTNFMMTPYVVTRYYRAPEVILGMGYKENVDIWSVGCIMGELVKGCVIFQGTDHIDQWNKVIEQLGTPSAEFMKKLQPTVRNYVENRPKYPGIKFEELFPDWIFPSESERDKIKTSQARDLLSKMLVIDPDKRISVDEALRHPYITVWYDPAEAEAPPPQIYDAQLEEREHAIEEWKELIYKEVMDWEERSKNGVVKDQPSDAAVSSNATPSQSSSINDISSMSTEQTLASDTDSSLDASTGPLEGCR
# Serine/threonine-protein kinase PLK1, sequence (P53350 whole entry): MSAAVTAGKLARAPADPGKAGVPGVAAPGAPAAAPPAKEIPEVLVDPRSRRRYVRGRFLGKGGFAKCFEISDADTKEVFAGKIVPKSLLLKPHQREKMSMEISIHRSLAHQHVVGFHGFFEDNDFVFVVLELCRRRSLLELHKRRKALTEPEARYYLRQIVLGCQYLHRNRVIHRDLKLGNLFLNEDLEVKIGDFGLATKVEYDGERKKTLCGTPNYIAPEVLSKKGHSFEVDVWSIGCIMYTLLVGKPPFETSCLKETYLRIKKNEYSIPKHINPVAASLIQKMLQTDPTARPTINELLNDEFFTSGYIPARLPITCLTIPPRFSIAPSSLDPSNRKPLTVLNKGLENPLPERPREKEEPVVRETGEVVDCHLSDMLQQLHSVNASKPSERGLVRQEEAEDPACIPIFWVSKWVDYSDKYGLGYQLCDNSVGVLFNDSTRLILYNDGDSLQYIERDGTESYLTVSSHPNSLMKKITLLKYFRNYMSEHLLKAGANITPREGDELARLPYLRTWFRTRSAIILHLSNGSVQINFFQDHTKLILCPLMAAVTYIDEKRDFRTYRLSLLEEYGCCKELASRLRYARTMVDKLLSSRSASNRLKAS
# Interleukin-1 receptor-associated kinase 4, sequence (Q9NWZ3 whole entry): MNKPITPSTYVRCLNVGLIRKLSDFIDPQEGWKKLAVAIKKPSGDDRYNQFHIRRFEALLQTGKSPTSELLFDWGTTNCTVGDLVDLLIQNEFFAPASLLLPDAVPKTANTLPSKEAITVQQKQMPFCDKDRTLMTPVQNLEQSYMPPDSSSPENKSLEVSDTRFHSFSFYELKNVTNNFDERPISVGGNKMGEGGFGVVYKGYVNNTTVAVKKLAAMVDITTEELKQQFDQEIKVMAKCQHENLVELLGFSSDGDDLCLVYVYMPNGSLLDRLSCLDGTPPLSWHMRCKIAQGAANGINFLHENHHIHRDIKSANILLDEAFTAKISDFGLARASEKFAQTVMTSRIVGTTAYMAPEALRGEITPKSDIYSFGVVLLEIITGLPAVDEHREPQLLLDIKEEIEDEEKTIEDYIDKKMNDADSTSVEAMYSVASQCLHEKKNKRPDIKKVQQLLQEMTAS
# Rho-associated protein kinase 2, sequence (O75116 whole entry): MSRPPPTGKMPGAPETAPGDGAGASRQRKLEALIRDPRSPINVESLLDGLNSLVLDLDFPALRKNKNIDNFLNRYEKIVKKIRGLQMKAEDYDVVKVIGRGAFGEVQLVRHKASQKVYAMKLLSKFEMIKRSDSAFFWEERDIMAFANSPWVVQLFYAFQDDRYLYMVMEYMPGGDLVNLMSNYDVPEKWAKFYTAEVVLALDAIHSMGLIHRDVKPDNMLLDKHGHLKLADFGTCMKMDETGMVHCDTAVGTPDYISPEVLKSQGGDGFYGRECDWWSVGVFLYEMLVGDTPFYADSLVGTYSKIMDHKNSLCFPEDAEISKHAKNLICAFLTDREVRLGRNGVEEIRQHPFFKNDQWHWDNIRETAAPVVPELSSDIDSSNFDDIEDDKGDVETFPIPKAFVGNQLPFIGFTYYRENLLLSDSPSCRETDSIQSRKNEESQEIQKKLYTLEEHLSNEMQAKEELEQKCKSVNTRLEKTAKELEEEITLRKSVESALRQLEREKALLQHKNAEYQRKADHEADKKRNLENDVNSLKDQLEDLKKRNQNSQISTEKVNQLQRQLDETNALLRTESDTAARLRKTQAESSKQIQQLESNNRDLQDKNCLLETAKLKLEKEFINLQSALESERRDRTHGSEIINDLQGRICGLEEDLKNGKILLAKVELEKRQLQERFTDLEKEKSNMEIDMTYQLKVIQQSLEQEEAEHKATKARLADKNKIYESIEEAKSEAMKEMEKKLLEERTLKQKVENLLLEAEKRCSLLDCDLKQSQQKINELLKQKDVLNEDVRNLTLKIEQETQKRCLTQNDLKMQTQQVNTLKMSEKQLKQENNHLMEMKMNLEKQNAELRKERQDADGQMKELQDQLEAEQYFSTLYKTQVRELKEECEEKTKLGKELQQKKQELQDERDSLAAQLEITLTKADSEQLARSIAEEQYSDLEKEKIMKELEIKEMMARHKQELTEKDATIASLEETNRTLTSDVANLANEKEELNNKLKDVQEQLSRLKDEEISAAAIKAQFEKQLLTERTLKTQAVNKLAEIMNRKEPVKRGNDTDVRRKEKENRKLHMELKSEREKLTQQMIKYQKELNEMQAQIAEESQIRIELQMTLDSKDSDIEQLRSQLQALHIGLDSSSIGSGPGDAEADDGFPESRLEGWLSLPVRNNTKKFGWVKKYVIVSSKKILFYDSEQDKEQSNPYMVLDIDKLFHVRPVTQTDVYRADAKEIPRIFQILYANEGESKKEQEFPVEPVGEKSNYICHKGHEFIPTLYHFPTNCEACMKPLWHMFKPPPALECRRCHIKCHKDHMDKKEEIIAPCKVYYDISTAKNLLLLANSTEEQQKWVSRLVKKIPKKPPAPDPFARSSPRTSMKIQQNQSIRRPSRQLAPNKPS
# Tyrosine-protein kinase JAK2, sequence (O60674 whole entry): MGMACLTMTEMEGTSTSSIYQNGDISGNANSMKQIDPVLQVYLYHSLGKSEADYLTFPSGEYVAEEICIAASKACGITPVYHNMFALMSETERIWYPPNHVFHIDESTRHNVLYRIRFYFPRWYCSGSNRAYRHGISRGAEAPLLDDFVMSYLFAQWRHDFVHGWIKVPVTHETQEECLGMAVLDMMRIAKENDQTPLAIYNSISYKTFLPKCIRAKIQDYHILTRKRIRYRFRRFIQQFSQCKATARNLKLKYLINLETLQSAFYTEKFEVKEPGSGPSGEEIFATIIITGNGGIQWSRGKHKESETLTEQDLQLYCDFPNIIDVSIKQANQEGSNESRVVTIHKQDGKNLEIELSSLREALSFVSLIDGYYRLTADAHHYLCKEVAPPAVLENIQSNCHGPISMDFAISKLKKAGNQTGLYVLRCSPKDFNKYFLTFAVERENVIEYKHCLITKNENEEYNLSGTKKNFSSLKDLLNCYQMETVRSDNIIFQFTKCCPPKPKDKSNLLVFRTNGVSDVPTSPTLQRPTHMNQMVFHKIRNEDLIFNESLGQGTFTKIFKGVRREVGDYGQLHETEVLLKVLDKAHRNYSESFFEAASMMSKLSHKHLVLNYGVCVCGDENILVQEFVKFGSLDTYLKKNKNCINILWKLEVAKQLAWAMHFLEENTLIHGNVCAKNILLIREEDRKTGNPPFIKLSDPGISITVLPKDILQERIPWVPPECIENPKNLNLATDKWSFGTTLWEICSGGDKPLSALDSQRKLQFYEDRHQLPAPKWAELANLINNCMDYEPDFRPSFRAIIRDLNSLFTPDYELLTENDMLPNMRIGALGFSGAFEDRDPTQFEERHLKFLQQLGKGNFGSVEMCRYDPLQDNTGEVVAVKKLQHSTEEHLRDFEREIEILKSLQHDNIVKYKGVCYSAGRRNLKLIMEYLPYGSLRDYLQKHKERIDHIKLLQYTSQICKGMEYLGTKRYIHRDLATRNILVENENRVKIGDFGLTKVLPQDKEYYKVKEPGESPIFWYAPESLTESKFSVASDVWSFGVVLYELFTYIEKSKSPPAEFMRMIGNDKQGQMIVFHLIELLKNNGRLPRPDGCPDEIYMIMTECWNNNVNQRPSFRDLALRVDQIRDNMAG
# Mitogen-activated protein kinase 14, sequence (Q16539 whole entry): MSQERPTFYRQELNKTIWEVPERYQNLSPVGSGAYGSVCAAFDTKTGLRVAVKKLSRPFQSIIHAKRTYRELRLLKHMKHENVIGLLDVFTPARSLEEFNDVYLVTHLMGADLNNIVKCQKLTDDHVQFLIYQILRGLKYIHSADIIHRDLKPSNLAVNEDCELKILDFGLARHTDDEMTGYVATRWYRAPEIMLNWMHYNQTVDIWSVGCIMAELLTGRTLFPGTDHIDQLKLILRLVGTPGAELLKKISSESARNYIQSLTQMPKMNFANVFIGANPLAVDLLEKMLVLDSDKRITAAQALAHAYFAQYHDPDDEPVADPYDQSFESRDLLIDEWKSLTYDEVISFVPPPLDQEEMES
# Protein kinase C theta type, sequence (Q04759 whole entry): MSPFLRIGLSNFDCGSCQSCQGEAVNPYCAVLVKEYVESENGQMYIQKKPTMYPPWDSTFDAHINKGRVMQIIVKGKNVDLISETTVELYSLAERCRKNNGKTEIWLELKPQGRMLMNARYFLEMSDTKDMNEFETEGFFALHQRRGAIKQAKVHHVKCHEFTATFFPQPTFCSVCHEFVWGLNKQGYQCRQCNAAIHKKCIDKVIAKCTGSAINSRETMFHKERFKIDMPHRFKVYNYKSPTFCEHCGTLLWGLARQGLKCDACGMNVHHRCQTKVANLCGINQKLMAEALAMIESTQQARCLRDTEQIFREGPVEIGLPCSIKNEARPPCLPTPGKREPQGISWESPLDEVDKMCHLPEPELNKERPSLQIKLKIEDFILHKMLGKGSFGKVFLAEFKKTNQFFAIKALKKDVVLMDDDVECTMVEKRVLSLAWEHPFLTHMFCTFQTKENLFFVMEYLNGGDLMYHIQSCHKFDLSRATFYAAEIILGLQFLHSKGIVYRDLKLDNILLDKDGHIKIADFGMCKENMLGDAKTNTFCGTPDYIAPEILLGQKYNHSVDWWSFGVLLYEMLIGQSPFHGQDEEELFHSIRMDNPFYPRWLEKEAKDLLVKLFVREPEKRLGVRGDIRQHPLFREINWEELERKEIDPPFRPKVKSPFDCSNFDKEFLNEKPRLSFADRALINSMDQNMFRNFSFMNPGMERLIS
smiles,measurement,setting,value
CN1CCN(c2ccc(Nc3ncc4nc(Nc5ccccc5)n(C5CCCC5)c4n3)cc2)CC1,Kd,[1],0.5 nM
same,Kd,[2],0.4 nM
same,Kd,[3],0.5 nM
same,IC50,HepG2,> 5000 nM
same,IC50,NCI-H1975 [4],360 nM
same,IC50,[5],< 0.01 nM
same,IC50,[6],> 10000 nM
same,IC50,[7],60 nM
same,inhibition in vivo at 25 mg/kg,NCI-H1975 [8],35%
same,Activity,HCC827 [9],Active
same,Cmax,[10],230 ng/mL
same,CL/F,[11],162 mL/min/kg
same,Vdss,Rattus norvegicus,63.35 L/kg
same,Tmax,[12],1 h
same,half-life,[13],4.86 h
same,AUC(0-t) at 24 h,[14],2140 ng·h/mL
same,inhibition,Mus musculus [15],Active
same,Activity,Mus musculus [16],4.4%
same,TGI,NCI-H1975 [17],Dose-dependent effect
same,inhibition in vivo at 50 mg/kg,NCI-H1975 [18],62%
same,TGI,HCC827 [19],Active
same,TGI,HCC827 [20],Active
same,IC50,FaDu,15 nM
same,IC50,[21],230 nM
same,IC50,[22],6700 nM
same,IC50,[23],> 10000 nM
same,IC50,[24],> 10000 nM
same,IC50,[25],6100 nM
same,IC50,[26],3600 nM
same,IC50,[27],6700 nM
same,IC50,[28],1100 nM
same,IC50,[29],> 10000 nM
same,IC50,[30],3200 nM
same,IC50,[31],> 10000 nM
same,IC50,[32],1500 nM
same,IC50,[33],2600 nM
same,IC50,[34],1200 nM
same,IC50,[35],> 10000 nM
same,IC50,[36],> 10000 nM
same,IC50,[37],> 10000 nM
same,IC50,[38],> 10000 nM
same,IC50,[39],> 10000 nM
same,IC50,[40],290 nM
same,IC50,[41],540 nM
same,IC50,Insulin receptor,> 10000 nM
same,IC50,[42],> 10000 nM
same,IC50,[43],30 nM
same,IC50,[44],2300 nM
same,IC50,[45],> 10000 nM
